The target of series [1] is β-glucosidase (almonds). The note with it: data for 7–9 and DNJ included for comparative purposes; cited from earlier work.
For series [2], the target named is T1, α-glucosidase (yeast) (Saccharomyces cerevisiae, UniProt P53341).
T1 construct: purchased Sigma Chemical Co., St. Louis, MO, USA
Set-up: method as in doi:10.1080/07328303.2020.1837150. The note with it: data for 7–9 and DNJ included for comparative purposes; cited from earlier work.

For series [3], the target named is β-glucosidase (almonds). The series is described as follows: β-glucosidase (almonds) inhibition assay, p-nitrophenyl glycopyranoside substrate. Type of series: biochemical. The following applies: 50 mM phosphate buffer pH 6.8, 37 °C; mean ± SD, three independent experiments. How it is done:
(§1) Compounds 10–20 (except 15 for solubility reasons) were evaluated by in vitro α-glucosidase (yeast), β-glucosidase (almonds) inhibition studies.
(§2) Two glycosidases, α-glucosidase (yeast) and β-glucosidase (almonds), and their corresponding substrates, p-nitrophenyl glycopyranosides, were purchased from Sigma Chemical Co., St. Louis, MO, USA. Other commercial reagents and solvents were used as received. Reactions were monitored by Thin Layer Chromatography (TLC) analyses using silica gel GF254 plates bearing a 0.25 mm layer. Visualization of compounds was detected by short-wave UV fluorescence (λ = 254 nm) and/or by dipping into 5% phosphomolybdic acid in EtOH. Column chromatography was carried out by silica gel (200–300 mesh). NMR spectra (^1H and ^13C) were recorded with Bruker AV III 500 MHz spectrometer using CDCl3 (22–33), D2O (10–13, 16–20) or CD3OD (14, 15) as solvents. High-resolution mass spectra (HRMS) were obtained by direct injection on a mass spectrometer (Thermo Scientific LTQ Orbitrap XL, Waltham, MA, USA) equipped with an electrospray ion source in positive mode (see Supplementary Materials).
(§3) The α-glucosidase and β-glucosidase assays were performed in 50 mM phosphate buffer (pH 6.8) at 37 °C. The inhibitors were pre-incubated with the enzyme solutions at 37 °C for 15 min, and then the corresponding substrates were added. After the enzymatic reaction was incubated at 37 °C for 15 min., it was quenched by adding Na2CO3. Absorbance readings were taken on a BioTek µQuant Microplate Spectrophotometer at 405 nm. Experiments were performed in triplicate. The IC50 values were determined graphically using GraphPad Prism (version 8.0).

Series [4] concerns the target T1, α-glucosidase (yeast). The experiment in a line: α-glucosidase (yeast) inhibition assay, p-nitrophenyl glycopyranoside substrate. The note with it: 50 mM phosphate buffer pH 6.8, 37 °C; mean ± SD, three independent experiments. Format: biochemical. How it is done:
as §1, §2, §3

In series [5] the target is T2, yeast α-glucosidase (Saccharomyces cerevisiae, UniProt P53341).
T2 construct: purchased Sigma Chemical Co., St. Louis, MO, USA
T2 sequence (P53341 whole entry): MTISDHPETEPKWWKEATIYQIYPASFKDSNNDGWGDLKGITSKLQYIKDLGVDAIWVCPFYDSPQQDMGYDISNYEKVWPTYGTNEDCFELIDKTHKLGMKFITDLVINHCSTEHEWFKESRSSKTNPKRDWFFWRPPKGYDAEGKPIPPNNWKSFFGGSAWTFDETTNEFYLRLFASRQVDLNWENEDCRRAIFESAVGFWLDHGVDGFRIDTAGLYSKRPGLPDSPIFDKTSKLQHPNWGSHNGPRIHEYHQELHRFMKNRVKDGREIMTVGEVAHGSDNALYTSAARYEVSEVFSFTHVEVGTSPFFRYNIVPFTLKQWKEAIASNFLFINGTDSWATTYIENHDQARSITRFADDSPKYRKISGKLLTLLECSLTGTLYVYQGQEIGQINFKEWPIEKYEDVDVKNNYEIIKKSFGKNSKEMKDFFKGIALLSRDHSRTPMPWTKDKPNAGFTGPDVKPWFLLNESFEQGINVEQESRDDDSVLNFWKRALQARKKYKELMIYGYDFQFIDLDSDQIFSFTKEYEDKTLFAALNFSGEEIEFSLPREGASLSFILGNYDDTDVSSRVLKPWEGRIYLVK
The experiment in a line: Kinetics of enzyme inhibition (Lineweaver–Burk plots). Format: biochemical. The following applies: for mode of inhibition: Lineweaver–Burk plot, same Vmax; for Ki: substrate para-nitrophenyl α-D-glucopyranoside, pH 6.8, 37 °C, read-out: inhibition constant (Ki). Here is the method: In order to gain further insight into how these hybrids interact with α-glucosidase, the mode of inhibition for compounds 18 and 19 as representative examples was analyzed using the Lineweaver–Burk plot (Figure 2).
The inhibition types of the selected compounds were determined from Lineweavere–Burk plots. […] The enzyme reaction was performed according to the conditions described above.
Figure 2 Double-reciprocal plots of the inhibition kinetics of yeast α-glucosidase by compounds 18 (a), 19 (b).

The test system of series [6] is HL60 cells. The experiment in a line: Cell proliferation / viability CCK-8 assay. Type of series: cell-based. The note with it: for cell survival rate: HL60, 80 µM, 24 h, CCK-8. Here is the method: (§4) Compounds 9, 13 and 17–20 with better inhibitory activity on α-glucosidase were selected to study the effect on cell viability and proliferation by CCK-8 assay (Figure 5). […] When viability was measured at 50 µM for these compounds, the viability of compound 19 was 96.97% compared with 20.89% for compound 20. […] With the increase in compound concentration, a lot of dead cells and more cell debris were observed, and the culture medium became muddy for 20, which was not obviously observed for 9, 13 and 17–19.
(§5) HL60 cells in DMEM supplemented with 10% fetal bovine serum were seeded at a density of 5 × 10^3 cells/well in a 96-well plate and incubated at 37 °C for 24 h. The medium was substituted with fresh medium containing a range of concentrations of inhibitors in DMSO and cultured for another 24 h. CCK-8 solution (10 µL) was added to each well incubated at 37 °C for 1 h. The absorbance was read on a BioTek µQuant Microplate Spectrophotometer at 450 nm. The cell vitality curve was depicted with GraphPad Prism (version 8.0).
Background: Tetrazolium assays rely on reduction of a dye to a coloured formazan, in cell work by metabolically active cells.

Series [7] can be described thus: Cell proliferation / viability CCK-8 assay. Type of series: cell-based. The note with it: human, HL60 cells; HL60, 50 µM, 24 h, CCK-8. How it is done: as §4, §5

Entries after “also recorded” stand apart in the source; their conditions may differ. Read-outs that look alike come from different tables or passages of the source.

T1 sequence (P53341 whole entry): as above

Turning to `OC[C@@H]1[C@@H](O)[C@H](O)[C@@H](O)CN1CCCCn1cc(-c2ccccc2)nn1` [Compound 7], the IC50 (in general, the concentration needed to halve the response being measured) in series [1] was more than 1000 µM; in series [2], 551 ± 25 µM.
Take `Cc1ccc(-c2cn(CCCCN3C[C@H](O)[C@@H](O)[C@H](O)[C@H]3CO)nn2)cc1` [Compound 8]: the IC50 was more than 1000 µM in series [1] and 324 ± 65 µM in series [2].
For `CCCCCc1ccc(-c2cn(CCCCN3C[C@H](O)[C@@H](O)[C@H](O)[C@H]3CO)nn2)cc1` [Compound 9], the IC50 in series [1] was 665 ± 57 µM; in series [2] it was 63 ± 6 µM.
For `CCc1ccc(-c2cn(CCCCN3C[C@H](O)[C@@H](O)[C@H](O)[C@H]3CO)nn2)cc1` [Compound 10, (2R,3R,4R,5S)-1-(4-(4-(4-ethylphenyl)-1H-1,2,3-triazol-1-yl)butyl)-2-(hydroxymethyl)piperidine-3,4,5-triol], the IC50 in series [3] was more than 1000 µM; in series [4], 244 ± 32 µM.
In the same order, the values of `CCCc1ccc(-c2cn(CCCCN3C[C@H](O)[C@@H](O)[C@H](O)[C@H]3CO)nn2)cc1` [Compound 11, (2R,3R,4R,5S)-2-(hydroxymethyl)-1-(4-(4-(4-propylphenyl)-1H-1,2,3-triazol-1-yl)butyl)piperidine-3,4,5-triol] are 739 ± 78 µM and 171 ± 25 µM.
As for `CCCCc1ccc(-c2cn(CCCCN3C[C@H](O)[C@@H](O)[C@H](O)[C@H]3CO)nn2)cc1` [Compound 12, (2R,3R,4R,5S)-1-(4-(4-(4-butylphenyl)-1H-1,2,3-triazol-1-yl)butyl)-2-(hydroxymethyl)piperidine-3,4,5-triol], the IC50 in series [3] was found to be 770 ± 92 µM; in series [4], 105 ± 9 µM.
In the same order, the values of `CCCCCCc1ccc(-c2cn(CCCCN3C[C@H](O)[C@@H](O)[C@H](O)[C@H]3CO)nn2)cc1` [Compound 13, (2R,3R,4R,5S)-1-(4-(4-(4-hexylphenyl)-1H-1,2,3-triazol-1-yl)butyl)-2-(hydroxymethyl)piperidine-3,4,5-triol] are 529 ± 41 µM and 82 ± 5 µM.
For `OC[C@@H]1[C@@H](O)[C@H](O)[C@@H](O)CN1CCCCCCn1cc(-c2ccccc2)nn1` [Compound 14, (2R,3R,4R,5S)-2-(hydroxymethyl)-1-(6-(4-phenyl-1H-1,2,3-triazol-1-yl)hexyl)piperidine-3,4,5-triol], in that order: 130 ± 5 µM and 130 ± 9 µM.
For `CCc1ccc(-c2cn(CCCCCCN3C[C@H](O)[C@@H](O)[C@H](O)[C@H]3CO)nn2)cc1` [Compound 16, (2R,3R,4R,5S)-1-(6-(4-(4-ethylphenyl)-1H-1,2,3-triazol-1-yl)hexyl)-2-(hydroxymethyl)piperidine-3,4,5-triol], in that order: 65 ± 2 µM and 68 ± 4 µM.
For the compound `CCCc1ccc(-c2cn(CCCCCCN3C[C@H](O)[C@@H](O)[C@H](O)[C@H]3CO)nn2)cc1` [Compound 17, (2R,3R,4R,5S)-2-(hydroxymethyl)-1-(6-(4-(4-propylphenyl)-1H-1,2,3-triazol-1-yl)hexyl)piperidine-3,4,5-triol], the figures for the IC50 in series [3] and in series [4] were 62 ± 4 µM and 14 ± 1 µM, respectively.
As to `CCCCc1ccc(-c2cn(CCCCCCN3C[C@H](O)[C@@H](O)[C@H](O)[C@H]3CO)nn2)cc1` [Compound 18, (2R,3R,4R,5S)-1-(6-(4-(4-butylphenyl)-1H-1,2,3-triazol-1-yl)hexyl)-2-(hydroxymethyl)piperidine-3,4,5-triol], in series [5], the mode of inhibition result was “competitive” and the Ki (usually the equilibrium dissociation constant of an inhibitor or competing ligand from its target) is 3.8 µM. The compound further had an IC50 in series [3] of 69 ± 5 µM. Further, half-maximal inhibition in series [4] (IC50) required 11 ± 1 µM.
For `CCCCCc1ccc(-c2cn(CCCCCCN3C[C@H](O)[C@@H](O)[C@H](O)[C@H]3CO)nn2)cc1` [Compound 19, (2R,3R,4R,5S)-2-(hydroxymethyl)-1-(6-(4-(4-pentylphenyl)-1H-1,2,3-triazol-1-yl)hexyl)piperidine-3,4,5-triol], in series [5], the mode of inhibition result is “competitive” and the Ki stood at 3.7 µM. This compound had a cell survival rate in series [6] of 71.28%. Besides, in series [7], the viability (as a rule, a per cent measure of how many cells are alive, often set against a control) at 24 h, 50 µM came out at 97%. For the same compound, half-maximal inhibition in series [3] (IC50) required 73 ± 7 µM. Moreover, half-maximal inhibition in series [4] (IC50) was put at 11 ± 1 µM.
Take `CCCCCCc1ccc(-c2cn(CCCCCCN3C[C@H](O)[C@@H](O)[C@H](O)[C@H]3CO)nn2)cc1` [Compound 20, (2R,3R,4R,5S)-1-(6-(4-(4-hexylphenyl)-1H-1,2,3-triazol-1-yl)hexyl)-2-(hydroxymethyl)piperidine-3,4,5-triol]: the “cytotoxicity” value in series [6] (HL60, 50 µM) is reported as “exhibited cytotoxicity; also recorded: cytotoxic”. The compound further registered a cell survival rate in series [6] of 6.66%. In series [7], this compound gave a viability at 24 h, 50 µM of 20.9%. The 50% inhibitory concentration (IC50) is 77 ± 4 µM in series [3] and 16 ± 2 µM in series [4].
Take `OC[C@H]1NC[C@H](O)[C@@H](O)[C@@H]1O` [DNJ, 1-deoxynojirimycin]: the IC50 in series [1] was […].

The values above are taken from publication PMC11547804, “Synthesis and Evaluation of Phenyltriazole-Deoxynojirimycin Hybrids as Potent α-Glucosidase Inhibitors” (Molecules, 2024).
